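A five-concentration, 48-hour dose response in 96-well plates underlies each endpoint, interpolated linearly between surrounding concentrations. TGI is the concentration that stops growth completely.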
Assays:
Assay in all cases: DTP human tumour cell line panel, 48 h
786-0 renal = system: 786-0 renal
A498 renal = system: A498 renal
ACHN renal = system: ACHN renal
CAKI-1 renal = system: CAKI-1 renal
CCRF-CEM leukemia = system: CCRF-CEM leukemia
COLO 205 colon = system: COLO 205 colon
DU-145 prostate = system: DU-145 prostate
HCC-2998 colon = system: HCC-2998 colon
HCT-15 colon = system: HCT-15 colon
HL-60(TB) leukemia = system: HL-60(TB) leukemia
HOP-62 NSCLC = system: HOP-62 NSCLC
HS 578T breast = system: HS 578T breast
HT29 colon = system: HT29 colon
K-562 leukemia = system: K-562 leukemia
KM12 colon = system: KM12 colon
LOX IMVI melanoma = system: LOX IMVI melanoma
M14 melanoma = system: M14 melanoma
MALME-3M melanoma = system: MALME-3M melanoma
MCF7 breast = system: MCF7 breast
MDA-MB-231 breast = system: MDA-MB-231 breast
MDA-MB-435 = system: MDA-MB-435
MDA-N = system: MDA-N
MOLT-4 leukemia = system: MOLT-4 leukemia
NCI-H226 lung = system: NCI-H226 lung
NCI-H23 lung = system: NCI-H23 lung
NCI-H460 lung = system: NCI-H460 lung
NCI/ADR-RES ovarian = system: NCI/ADR-RES ovarian
OVCAR-3 ovarian = system: OVCAR-3 ovarian
OVCAR-8 ovarian = system: OVCAR-8 ovarian
PC-3 prostate = system: PC-3 prostate
RPMI-8226 leukemia = system: RPMI-8226 leukemia
RXF 393 renal = system: RXF 393 renal
SF-295 CNS = system: SF-295 CNS
SF-539 CNS = system: SF-539 CNS
SK-MEL-2 melanoma = system: SK-MEL-2 melanoma
SK-MEL-28 melanoma = system: SK-MEL-28 melanoma
SK-MEL-5 melanoma = system: SK-MEL-5 melanoma
SK-OV-3 ovarian = system: SK-OV-3 ovarian
SN12C renal = system: SN12C renal
SNB-75 CNS = system: SNB-75 CNS
SR leukemia = system: SR leukemia
SW-620 colon = system: SW-620 colon
T-47D breast = system: T-47D breast
TK-10 renal = system: TK-10 renal
U251 CNS = system: U251 CNS
UACC-257 melanoma = system: UACC-257 melanoma
UACC-62 melanoma = system: UACC-62 melanoma
UO-31 renal = system: UO-31 renal
A549 NSCLC = system: A549 NSCLC
EKVX NSCLC = system: EKVX NSCLC
HCT-116 colon = system: HCT-116 colon
IGROV1 ovarian = system: IGROV1 ovarian
OVCAR-4 ovarian = system: OVCAR-4 ovarian
OVCAR-5 ovarian = system: OVCAR-5 ovarian
SF-268 CNS = system: SF-268 CNS
SNB-19 CNS = system: SNB-19 CNS

## CC(NNC(=S)N1CCCCCC1)c1cccnn1 (stereo not drawn)
786-0 renal
  TGI: > 100 µM
A498 renal
  TGI: 9.82 µM
ACHN renal
  TGI: 3.09 µM
CAKI-1 renal
  TGI: > 100 µM
CCRF-CEM leukemia
  TGI: 1.1 µM
COLO 205 colon
  TGI: > 100 µM
DU-145 prostate
  TGI: > 100 µM
HCC-2998 colon
  TGI: > 100 µM
HCT-15 colon
  TGI: > 100 µM
HL-60(TB) leukemia
  TGI: > 32.2 µM
HOP-62 NSCLC
  TGI: > 32.5 µM
HS 578T breast
  TGI: > 100 µM
HT29 colon
  TGI: > 100 µM
K-562 leukemia
  TGI: > 58.7 µM
KM12 colon
  TGI: > 100 µM
LOX IMVI melanoma
  TGI: > 100 µM
M14 melanoma
  TGI: 4.94 µM
MALME-3M melanoma
  TGI: > 100 µM
MCF7 breast
  TGI: 0.901 µM
MDA-MB-231 breast
  TGI: > 100 µM
MDA-MB-435
  TGI: > 56.2 µM
MDA-N
  TGI: > 100 µM
MOLT-4 leukemia
  TGI: > 100 µM
NCI-H226 lung
  TGI: > 43.4 µM
NCI-H23 lung
  TGI: > 100 µM
NCI-H460 lung
  TGI: > 21.6 µM
NCI/ADR-RES ovarian
  TGI: > 88.8 µM
OVCAR-3 ovarian
  TGI: > 100 µM
OVCAR-8 ovarian
  TGI: > 100 µM
PC-3 prostate
  TGI: > 100 µM
RPMI-8226 leukemia
  TGI: > 100 µM
RXF 393 renal
  TGI: 0.57 µM
SF-295 CNS
  TGI: > 39.6 µM
SF-539 CNS
  TGI: 0.939 µM
SK-MEL-2 melanoma
  TGI: > 78.8 µM
SK-MEL-28 melanoma
  TGI: > 34.5 µM
SK-MEL-5 melanoma
  TGI: 2.31 µM
SK-OV-3 ovarian
  TGI: 20.7 µM
SN12C renal
  TGI: > 100 µM
SNB-75 CNS
  TGI: > 43.4 µM
SR leukemia
  TGI: > 100 µM
SW-620 colon
  TGI: > 100 µM
T-47D breast
  TGI: > 35.1 µM
TK-10 renal
  TGI: > 33.3 µM
U251 CNS
  TGI: > 80.4 µM
UACC-257 melanoma
  TGI: 3.77 µM
UACC-62 melanoma
  TGI: 1.14 µM
UO-31 renal
  TGI: 2.67 µM

## CC1CN=C(N(C(=O)Nc2ccccc2)c2ccccc2)S1 (stereo not drawn)
786-0 renal
  TGI: > 100 µM
A498 renal
  TGI: 51.2 µM
A549 NSCLC
  TGI: > 100 µM
ACHN renal
  TGI: > 100 µM
CAKI-1 renal
  TGI: > 100 µM
CCRF-CEM leukemia
  TGI: 64 µM
COLO 205 colon
  TGI: > 100 µM
DU-145 prostate
  TGI: > 100 µM
EKVX NSCLC
  TGI: > 100 µM
HCC-2998 colon
  TGI: > 100 µM
HCT-116 colon
  TGI: > 100 µM
HCT-15 colon
  TGI: > 100 µM
HL-60(TB) leukemia
  TGI: 66.4 µM
HOP-62 NSCLC
  TGI: > 100 µM
HS 578T breast
  TGI: > 100 µM
HT29 colon
  TGI: 36.6 µM
IGROV1 ovarian
  TGI: > 100 µM
K-562 leukemia
  TGI: > 100 µM
KM12 colon
  TGI: > 100 µM
LOX IMVI melanoma
  TGI: 37.4 µM
MALME-3M melanoma
  TGI: 58.8 µM
MCF7 breast
  TGI: 49.7 µM
MDA-MB-231 breast
  TGI: > 100 µM
MDA-N
  TGI: 48.2 µM
MOLT-4 leukemia
  TGI: 61.6 µM
NCI-H23 lung
  TGI: > 100 µM
NCI-H460 lung
  TGI: > 100 µM
NCI/ADR-RES ovarian
  TGI: 71.5 µM
OVCAR-3 ovarian
  TGI: 82.2 µM
OVCAR-4 ovarian
  TGI: > 100 µM
OVCAR-5 ovarian
  TGI: > 100 µM
OVCAR-8 ovarian
  TGI: > 100 µM
PC-3 prostate
  TGI: > 100 µM
RPMI-8226 leukemia
  TGI: 67.9 µM
SF-268 CNS
  TGI: > 100 µM
SF-295 CNS
  TGI: > 100 µM
SK-MEL-2 melanoma
  TGI: 40.5 µM
SK-MEL-28 melanoma
  TGI: 31.9 µM
SK-MEL-5 melanoma
  TGI: 31.8 µM
SK-OV-3 ovarian
  TGI: > 100 µM
SN12C renal
  TGI: 62.9 µM
SNB-19 CNS
  TGI: > 100 µM
SNB-75 CNS
  TGI: > 100 µM
SR leukemia
  TGI: 81.5 µM
SW-620 colon
  TGI: > 100 µM
T-47D breast
  TGI: > 100 µM
TK-10 renal
  TGI: 94.2 µM
U251 CNS
  TGI: > 100 µM
UACC-257 melanoma
  TGI: 64.7 µM
UO-31 renal
  TGI: > 100 µM
